Results from ChEMBL document CHEMBL1201862, “PubChem BioAssay data set” (2004).
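Cultured in 96-well plates, cells were exposed to test compound for 48 hours across five concentrations. GI50 = concentration required for 50% inhibition of growth.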 Active and inactive are the calls of the source. No stated cut-off is given here; in the data, active = GI50 up to about 1.1 µM and inactive = higher.

What was measured:
Assay in all cases: inhibition of tumour cell growth, NCI panel, 48 h
786-0 = system: 786-0
A498 = system: A498
A549 = system: A549
ACHN = system: ACHN
BT-549 = system: BT-549
CAKI-1 = system: CAKI-1
CCRF-CEM = system: CCRF-CEM
COLO 205 = system: COLO 205
DLD-1 = system: DLD-1
DMS-114 = system: DMS-114
DMS-273 = system: DMS-273
DU-145 = system: DU-145
EKVX = system: EKVX
HCC 2998 = system: HCC 2998
HCT-116 = system: HCT-116
HCT-15 = system: HCT-15
HL-60 = system: HL-60
HOP-18 = system: HOP-18
HOP-62 = system: HOP-62
HOP-92 = system: HOP-92
HT-29 = system: HT-29
Hs-578T = system: Hs-578T
IGROV-1 = system: IGROV-1
K562 = system: K562
KM-20L2 = system: KM-20L2
KM12 = system: KM12
LOX IMVI = system: LOX IMVI
LXFL 529 = system: LXFL 529
M14 = system: M14
M19-MEL = system: M19-MEL
MCF7 = system: MCF7
MDA-MB-231 = system: MDA-MB-231
MDA-MB-435 = system: MDA-MB-435
MDA-N = system: MDA-N
MOLT-4 = system: MOLT-4
Malme-3M = system: Malme-3M
NCI-H226 = system: NCI-H226
NCI-H23 = system: NCI-H23
NCI-H460 = system: NCI-H460
NCI-H522 = system: NCI-H522
NCI/ADR-RES = system: NCI/ADR-RES
OVCAR-3 = system: OVCAR-3
OVCAR-4 = system: OVCAR-4
OVCAR-5 = system: OVCAR-5
OVCAR-8 = system: OVCAR-8
PC-3 = system: PC-3
RPMI-8226 = system: RPMI-8226
RXF 393 = system: RXF 393
SF-268 = system: SF-268
SF-295 = system: SF-295
SF-539 = system: SF-539
SK-MEL-28 = system: SK-MEL-28
SK-MEL-2 = system: SK-MEL-2
SK-MEL-5 = system: SK-MEL-5
SK-OV-3 = system: SK-OV-3
SN12C = system: SN12C
SNB-19 = system: SNB-19
SNB-75 = system: SNB-75
SNB-78 = system: SNB-78
SR = system: SR
SW-620 = system: SW-620
T47D = system: T47D
TK-10 = system: TK-10
U-251 = system: U-251
UACC-257 = system: UACC-257
UACC-62 = system: UACC-62
UO-31 = system: UO-31
XF498 = system: XF498
RXF 631 = system: RXF 631

CC[C@@]1(O)C(=O)OCc2c1cc1n(c2=O)Cc2cc3ccccc3nc2-1 [CAMPTOTHECIN]
GI50 (786-0): < 0.0214 µM (active) | GI50 (A498): 0.0322 µM (active) | GI50 (A549): 0.0181 µM (active) | GI50 (ACHN): < 0.0116 µM (active) | GI50 (BT-549): 0.115 µM (active) | GI50 (CAKI-1): 0.0118 µM (active) | GI50 (CCRF-CEM): < 0.01 µM (active) | GI50 (COLO 205): 0.286 µM (active) | GI50 (DLD-1): 0.243 µM (active) | GI50 (DMS-114): 0.0206 µM (active) | GI50 (DMS-273): < 0.01 µM (active) | GI50 (DU-145): < 0.01 µM (active) | GI50 (EKVX): 0.0951 µM (active) | GI50 (HCC 2998): 0.159 µM (active) | GI50 (HCT-116): 0.023 µM (active) | GI50 (HCT-15): 0.152 µM | GI50 (HL-60): 0.015 µM (active) | GI50 (HOP-18): 0.122 µM (active) | GI50 (HOP-62): 0.0116 µM (active) | GI50 (HOP-92): 0.0337 µM (active) | GI50 (HT-29): 0.0449 µM (active) | GI50 (Hs-578T): 0.817 µM (active) | GI50 (IGROV-1): 0.184 µM (active) | GI50 (K562): 0.0764 µM (active) | GI50 (KM-20L2): 0.0776 µM (active) | GI50 (KM12): 0.159 µM (active) | GI50 (LOX IMVI): 0.0261 µM (active) | GI50 (LXFL 529): 0.372 µM (active) | GI50 (M14): < 0.0206 µM (active) | GI50 (M19-MEL): 0.048 µM (active) | GI50 (MCF7): 0.0113 µM (active) | GI50 (MDA-MB-231): 0.938 µM (active) | GI50 (MDA-MB-435): 0.0658 µM (active) | GI50 (MDA-N): 0.145 µM (active) | GI50 (MOLT-4): < 0.01 µM (active) | GI50 (Malme-3M): 0.174 µM (active) | GI50 (NCI-H226): 0.0179 µM (active) | GI50 (NCI-H23): 0.0194 µM (active) | GI50 (NCI-H460): 0.0158 µM (active) | GI50 (NCI-H522): 0.0223 µM (active) | GI50 (NCI/ADR-RES): 0.012 µM (active) | GI50 (OVCAR-3): 0.177 µM (active) | GI50 (OVCAR-4): 0.209 µM (active) | GI50 (OVCAR-5): 0.0809 µM (active) | GI50 (OVCAR-8): 0.0388 µM (active) | GI50 (PC-3): 0.0644 µM (active) | GI50 (RPMI-8226): 0.0336 µM (active) | GI50 (RXF 393): 0.0256 µM (active) | GI50 (SF-268): 0.0115 µM (active) | GI50 (SF-295): 0.0115 µM (active) | GI50 (SF-539): 0.0145 µM (active) | GI50 (SK-MEL-28): 0.228 µM (active) | GI50 (SK-MEL-2): 0.298 µM (active) | GI50 (SK-MEL-5): 0.0272 µM (active) | GI50 (SK-OV-3): 0.0202 µM (active) | GI50 (SN12C): 0.014 µM (active) | GI50 (SNB-19): 0.0182 µM (active) | GI50 (SNB-75): 0.0272 µM (active) | GI50 (SNB-78): 0.333 µM (active) | GI50 (SR): < 0.01 µM (active) | GI50 (SW-620): 0.0366 µM (active) | GI50 (T47D): 0.0225 µM (active) | GI50 (TK-10): 1.32 µM (inactive) | GI50 (U-251): 0.0111 µM (active) | GI50 (UACC-257): 0.0543 µM (active) | GI50 (UACC-62): < 0.0106 µM (active) | GI50 (UO-31): 0.0303 µM (active) | GI50 (XF498): 0.0483 µM (active)

COC(=O)c1ccc(C=C(C#N)C#N)cc1
GI50 (786-0): 16.9 µM (inactive) | GI50 (A498): > 100 µM (inactive) | GI50 (A549): > 100 µM (inactive) | GI50 (ACHN): 25 µM (inactive) | GI50 (CAKI-1): 30.7 µM (inactive) | GI50 (CCRF-CEM): 21.5 µM (inactive) | GI50 (COLO 205): 27.7 µM (inactive) | GI50 (DLD-1): 22.2 µM (inactive) | GI50 (DMS-114): 19.2 µM (inactive) | GI50 (DMS-273): 17.4 µM (inactive) | GI50 (EKVX): 33.8 µM (inactive) | GI50 (HCC 2998): 15.6 µM (inactive) | GI50 (HCT-116): 17.1 µM (inactive) | GI50 (HCT-15): 35 µM | GI50 (HL-60): 28.4 µM (inactive) | GI50 (HOP-18): 36.1 µM (inactive) | GI50 (HOP-62): 27 µM (inactive) | GI50 (HOP-92): 14.7 µM (inactive) | GI50 (HT-29): 33.4 µM (inactive) | GI50 (IGROV-1): 28.4 µM (inactive) | GI50 (K562): 23.2 µM (inactive) | GI50 (KM-20L2): 30.6 µM (inactive) | GI50 (KM12): 31.6 µM (inactive) | GI50 (LOX IMVI): 21 µM (inactive) | GI50 (LXFL 529): 18.3 µM (inactive) | GI50 (M14): 16.5 µM (inactive) | GI50 (M19-MEL): 25.2 µM (inactive) | GI50 (MOLT-4): 21.7 µM (inactive) | GI50 (Malme-3M): 20.7 µM (inactive) | GI50 (NCI-H226): 24 µM (inactive) | GI50 (NCI-H23): 19.4 µM (inactive) | GI50 (NCI-H460): 83.6 µM (inactive) | GI50 (NCI-H522): 13.7 µM (inactive) | GI50 (OVCAR-3): 29.4 µM (inactive) | GI50 (OVCAR-4): 20.6 µM (inactive) | GI50 (OVCAR-5): > 100 µM (inactive) | GI50 (OVCAR-8): 21.9 µM (inactive) | GI50 (RPMI-8226): 22.5 µM (inactive) | GI50 (RXF 631): 28.2 µM (inactive) | GI50 (SF-268): 23 µM (inactive) | GI50 (SF-295): 32.4 µM (inactive) | GI50 (SF-539): 19.5 µM (inactive) | GI50 (SK-MEL-28): 19.3 µM (inactive) | GI50 (SK-MEL-2): 18.4 µM (inactive) | GI50 (SK-MEL-5): 17.9 µM (inactive) | GI50 (SK-OV-3): > 100 µM (inactive) | GI50 (SN12C): 19.3 µM (inactive) | GI50 (SNB-19): 38.5 µM (inactive) | GI50 (SNB-75): 27.4 µM (inactive) | GI50 (SW-620): 21.3 µM (inactive) | GI50 (TK-10): 27.9 µM (inactive) | GI50 (U-251): 24.4 µM (inactive) | GI50 (UACC-62): 20.8 µM (inactive)

Cc1cc(=O)c2c([nH]1)NS(=O)(=O)NC2=O
GI50 (786-0): > 100 µM (inactive) | GI50 (A498): > 100 µM (inactive) | GI50 (A549): > 100 µM (inactive) | GI50 (CAKI-1): > 100 µM (inactive) | GI50 (CCRF-CEM): > 100 µM (inactive) | GI50 (COLO 205): > 100 µM (inactive) | GI50 (DLD-1): > 100 µM (inactive) | GI50 (DMS-273): > 100 µM (inactive) | GI50 (EKVX): > 100 µM (inactive) | GI50 (HCC 2998): > 100 µM (inactive) | GI50 (HCT-116): > 100 µM (inactive) | GI50 (HCT-15): > 100 µM | GI50 (HL-60): > 100 µM (inactive) | GI50 (HOP-62): > 100 µM (inactive) | GI50 (HOP-92): > 100 µM (inactive) | GI50 (HT-29): > 100 µM (inactive) | GI50 (IGROV-1): > 100 µM (inactive) | GI50 (K562): > 100 µM (inactive) | GI50 (KM12): > 100 µM (inactive) | GI50 (LXFL 529): > 100 µM (inactive) | GI50 (M14): > 100 µM (inactive) | GI50 (M19-MEL): > 100 µM (inactive) | GI50 (MOLT-4): > 100 µM (inactive) | GI50 (Malme-3M): > 100 µM (inactive) | GI50 (NCI-H226): > 100 µM (inactive) | GI50 (NCI-H23): > 100 µM (inactive) | GI50 (NCI-H522): > 100 µM (inactive) | GI50 (OVCAR-3): > 100 µM (inactive) | GI50 (OVCAR-4): > 100 µM (inactive) | GI50 (OVCAR-8): > 100 µM (inactive) | GI50 (RPMI-8226): > 100 µM (inactive) | GI50 (RXF 631): > 100 µM (inactive) | GI50 (SF-268): > 100 µM (inactive) | GI50 (SF-295): > 100 µM (inactive) | GI50 (SF-539): > 100 µM (inactive) | GI50 (SK-MEL-28): > 100 µM (inactive) | GI50 (SK-MEL-2): > 100 µM (inactive) | GI50 (SK-OV-3): > 100 µM (inactive) | GI50 (SN12C): > 100 µM (inactive) | GI50 (SNB-19): > 100 µM (inactive) | GI50 (SNB-75): > 100 µM (inactive) | GI50 (SNB-78): > 100 µM (inactive) | GI50 (SR): > 100 µM (inactive) | GI50 (SW-620): > 100 µM (inactive) | GI50 (TK-10): > 100 µM (inactive) | GI50 (UACC-257): > 100 µM (inactive) | GI50 (UACC-62): > 100 µM (inactive) | GI50 (UO-31): > 100 µM (inactive) | GI50 (XF498): > 100 µM (inactive)
